Reference: US20230391770A1, “METTL3 INHIBITORY COMPOUNDS” (Storm Therapeutics Limited, priority 2020, published 2023)
Where two headings read alike, the source gives them in different places.

Key:
Caov-3 cells = assay: Caov3 CTG proliferation assay (CellTiter-Glo); assay type: cell-based; settings: Homo sapiens, 120 hours treatment, 30 μM top concentration
Method: (§1) Cell treatment and cell growth assessment: 18 hours post-seeding in white 384-Viewplate (6007480, PerkinElmer) at 1500 cells/well, Caov3 cells were treated for 120 hours with compounds inhibiting the METTL3/14 activity (10 serial semi-log dilutions, 30 μM as top concentration). Upon treatment, Coav-3 cells were incubated for 10 min at RT with the CellTiter-Glo reagent (G7571, Promega). Measurement of the luminescence signal was performed on a microplate reader (Ensight, PerkinElmer).

METTL3/14 = METTL3/14 (Homo sapiens (Human), UniProt Q86U44); assay: METTL3/14 methyltransferase biochemical assay (RapidFire mass spectrometry, METTL3_14 RFMS)
Sequence of METTL3/14 (Q86U44 whole entry): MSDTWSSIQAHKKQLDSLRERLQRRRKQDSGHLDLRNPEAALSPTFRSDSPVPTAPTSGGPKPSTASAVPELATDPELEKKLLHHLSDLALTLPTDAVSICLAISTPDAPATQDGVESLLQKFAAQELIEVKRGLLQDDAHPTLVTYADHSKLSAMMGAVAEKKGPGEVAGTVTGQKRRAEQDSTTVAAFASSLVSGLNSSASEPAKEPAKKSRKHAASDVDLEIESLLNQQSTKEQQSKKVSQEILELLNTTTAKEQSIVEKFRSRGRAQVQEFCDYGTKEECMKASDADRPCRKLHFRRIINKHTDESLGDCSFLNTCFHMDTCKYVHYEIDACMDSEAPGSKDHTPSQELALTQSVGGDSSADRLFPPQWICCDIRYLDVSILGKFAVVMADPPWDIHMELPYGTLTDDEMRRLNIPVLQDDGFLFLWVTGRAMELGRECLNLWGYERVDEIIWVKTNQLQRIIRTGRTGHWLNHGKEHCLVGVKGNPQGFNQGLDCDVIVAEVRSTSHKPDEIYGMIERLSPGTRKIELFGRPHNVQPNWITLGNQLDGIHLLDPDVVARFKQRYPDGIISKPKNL
Sequence of METTL3/14 (Q9HCE5 whole entry partner): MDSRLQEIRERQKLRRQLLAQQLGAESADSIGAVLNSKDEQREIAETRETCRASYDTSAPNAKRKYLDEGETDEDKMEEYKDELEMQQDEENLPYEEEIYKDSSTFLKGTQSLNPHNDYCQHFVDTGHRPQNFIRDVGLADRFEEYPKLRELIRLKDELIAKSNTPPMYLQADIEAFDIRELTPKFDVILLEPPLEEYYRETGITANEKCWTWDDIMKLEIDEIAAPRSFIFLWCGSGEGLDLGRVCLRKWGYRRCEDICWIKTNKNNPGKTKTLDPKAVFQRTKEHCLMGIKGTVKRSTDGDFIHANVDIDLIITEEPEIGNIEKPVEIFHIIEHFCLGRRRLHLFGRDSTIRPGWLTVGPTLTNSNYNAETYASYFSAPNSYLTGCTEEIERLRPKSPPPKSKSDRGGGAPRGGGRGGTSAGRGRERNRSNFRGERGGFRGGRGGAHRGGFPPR
Method: The enzymatic assay was established to determine IC50 values for inhibition of RNA methyltransferase activity. The enzyme used was full-length his-tagged METTL3 co-expressed with full length FLAG-tagged METTL14 in a baculovirus expression system. […] The reaction was incubated for further 60 minutes at room temperature, and then quenched by the addition of 40 μL 7.5% TCA with two internal product standards (D4-SAH and ^13C10-SAH). After termination, plates were sealed, centrifuged and stored at 4° C. until analysis. […] RNA methyltransferase activity was measured label free using the RapidFireTM mass spectrometry (RF/MS) platform. Stopped and stable assay plates were analyzed on the Agilent RF300 integrated autosampler/solid-phase extraction (SPE) system coupled to an ABSciex 4000 mass spectrometer for the generation of the product S-adenosyl homocysteine (SAH) and normalized to the ratio of signal of the two internal product standards, respectively. Solvent A was water containing 0.1% (v/v) TCA. Solvent B was acetonitrile/0.1% ammonium acetate (8:2, v/v).

KASUMI-1 cells = assay: Kasumi cell assay (CellTiter-Glo cell growth); assay type: cell-based; settings: Homo sapiens, 120 hours treatment, 30 μM top concentration
Method: Cell culture: KASUMI-1 cells (ACC20, Leibniz-Institut DSMZ Deutsche Sammlung von Mikroorganismen und Zellkulturen GmbH) were grown in RPMI 1640 (31870-025, Gibco) supplemented with 20% fetal bovine serum (F1524, Gibco), 1 mM sodium pyruvate (11360-039, Gibco) and 2 mM Glutamax (35050-038, Gibco) in a 5% CO2 humidified incubator at 37° C.
as §1, with “KASUMI-1” for “18”, “were seeded” for “post-seeding”, “ultra-low attachment 384-well culture plate (MS-9384WZ, SBio)” for “white 384-Viewplate (6007480, PerkinElmer)”, “a final concentration of 250,000 cells/ml (35 μL/well) and” for “1500 cells/well, Caov3 cells were”, “Kasumi1” for “Coav-3”

Structure (SMILES) | IC50 (METTL3/14) [nM] | IC50 (METTL3/14; inhibition of RNA methyltransferase activity, 5 nM METTL3/14, 0.2 μM RNA substrate, 0.5 μM SAM, lower limit of the assay IC50=5 nM) [nM] | IC50 (Caov-3 cells) [nM] | IC50 (KASUMI-1 cells) [nM]
O=C(NCc1cn2cc(CNCC3CCC3)ccc2n1)c1cnc2[nH]ccc2n1 [Example 18, N-[(6-{[(cyclobutylmethyl)amino]methyl}imidazo[1,2-a]pyridin-2-yl)methyl]-5H-pyrrolo[2,3-b]pyrazine-2-carboxamide] | 14.1 | – | 2790 | –
O=C(NCc1cn2cc(CNCC34CC(F)(C3)C4)ccc2n1)c1cc(=O)n2ccsc2n1 [Example 19, N-[(6-{[({3-fluorobicyclo[1.1.1]pentan-1-yl}methyl)amino]methyl}imidazo[1,2-a]pyridin-2-yl)methyl]-5-oxo-5H-[1,3]thiazolo[3,2-a]pyrimidine-7-carboxamide] | 6.1 | – | 364 | 1360
COc1cc(-c2cn(Cc3cn4cc(CNCC5CCC5)ccc4n3)nn2)c2cncn2c1 [Example 22, (cyclobutylmethyl)({2-[(4-{6-methoxyimidazo[1,5-a]pyridin-8-yl}-1H-1,2,3-triazol-1-yl)methyl]imidazo[1,2-a]pyridin-6-yl}methyl)amine] | 6.1 | – | 305 | 1150
c1cc(-c2cn(Cc3cn4cc(CNCC5CCC5)ccc4n3)nn2)c2cncn2c1 [Example 23, (cyclobutylmethyl)({2-[(4-{imidazo[1,5-a]pyridin-8-yl}-1H-1,2,3-triazol-1-yl)methyl]imidazo[1,2-a]pyridin-6-yl}methyl)amine] | 6.1 | – | 888 | 2940
Clc1cc(-c2cn(Cc3cn4cc(CNCC5CCC5)ccc4n3)nn2)c2cncn2c1 [Example 24, ({2-[(4-{6-chloroimidazo[1,5-a]pyridin-8-yl}-1H-1,2,3-triazol-1-yl)methyl]imidazo[1,2-a]pyridin-6-yl}methyl)(cyclobutylmethyl)amine] | 6.1 | – | 343 | –
Fc1ncn2cccc(-c3cn(Cc4cn5cc(CNCC6CCC6)ccc5n4)nn3)c12 [Example 25, (cyclobutylmethyl)({2-[(4-{1-fluoroimidazo[1,5-a]pyridin-8-yl}-1H-1,2,3-triazol-1-yl)methyl]imidazo[1,2-a]pyridin-6-yl}methyl)amine] | 15.8 | – | 2720 | 4820
COc1cc(-c2cn(Cc3cn4cc(CNCC56CC(F)(C5)C6)ccc4n3)nn2)c2cncn2c1 [Example 26, ({3-fluorobicyclo[1.1.1]pentan-1-yl}methyl)({2-[(4-{6-methoxyimidazo[1,5-a]pyridin-8-yl}-1H-1,2,3-triazol-1-yl)methyl]imidazo[1,2-a]pyridin-6-yl}methyl)amine] | 6.1 | – | 110 | 449
c1cc(-c2cn(Cc3cn4cc(CNCC5CCC5)ccc4n3)nn2)c2nncn2c1 [Example 27, (cyclobutylmethyl)({2-[(4-{[1,2,4]triazolo[4,3-a]pyridin-8-yl}-1H-1,2,3-triazol-1-yl)methyl]imidazo[1,2-a]pyridin-6-yl}methyl)amine] | 236 | – | – | 30000
COc1cc(-c2cn(Cc3cn4cc(CNCC56CC(C5)C6)ccc4n3)nn2)c2cncn2c1 [Example 28, ({bicyclo[1.1.1]pentan-1-yl}methyl)({2-[(4-{6-methoxyimidazo[1,5-a]pyridin-8-yl}-1H-1,2,3-triazol-1-yl)methyl]imidazo[1,2-a]pyridin-6-yl}methyl)amine] | 6.1 | – | 102 | 316
c1cc(-c2cn(Cc3cn4cc(CN5CC6(CCC6)C5)ccc4n3)nn2)c2cncn2c1 [Example 29, 2-({2-[(4-{imidazo[1,5-a]pyridin-8-yl}-1H-1,2,3-triazol-1-yl)methyl]imidazo[1,2-a]pyridin-6-yl}methyl)-2-azaspiro[3.3]heptane] | 6.5 | – | 473 | 1570
COc1cc(-c2cn(Cc3cn4cc(CN5CC6(CCC6)C5)ccc4n3)nn2)c2cncn2c1 [Example 30, 2-({2-[(4-{6-methoxyimidazo[1,5-a]pyridin-8-yl}-1H-1,2,3-triazol-1-yl)methyl]imidazo[1,2-a]pyridin-6-yl}methyl)-2-azaspiro[3.3]heptane] | 6.1 | – | 598 | 2080
COc1cnc(C#N)c(-c2cn(Cc3cn4cc(CN5CCC(C)(C)CC5)ccc4n3)nn2)c1 [Example 39, 3-[1-({6-[(4,4-dimethylpiperidin-1-yl)methyl]imidazo[1,2-a]pyridin-2-yl}methyl)-1H-1,2,3-triazol-4-yl]-5-methoxypyridine-2-carbonitrile] | – | – | 5530 | 6210
COc1cncc(-c2cn(Cc3cn4cc(CNCC56CC(F)(C5)C6)ccc4n3)nn2)n1 [Example 44, ({3-fluorobicyclo[1.1.1]pentan-1-yl}methyl)[(2-{[4-(6-methoxypyrazin-2-yl)-1H-1,2,3-triazol-1-yl]methyl}imidazo[1,2-a]pyridin-6-yl)methyl]amine] | – | – | 2440 | 1990
COc1cncc(-c2cn(Cc3cn4cc(CNCC56CC(F)(C5)C6)ccc4n3)nn2)c1 [Example 45, ({3-fluorobicyclo[1.1.1]pentan-1-yl}methyl)[(2-{[4-(5-methoxypyridin-3-yl)-1H-1,2,3-triazol-1-yl]methyl}imidazo[1,2-a]pyridin-6-yl)methyl]amine] | – | – | 918 | 2520

Continued, in another order:

IC50 (METTL3/14) [nM] | IC50 (METTL3/14; inhibition of RNA methyltransferase activity, 5 nM METTL3/14, 0.2 μM RNA substrate, 0.5 μM SAM, lower limit of the assay IC50=5 nM) [nM] | Structure (SMILES) | IC50 (Caov-3 cells) [nM] | IC50 (KASUMI-1 cells) [nM]
9.34 | – | c1cc2cc(-c3cn(Cc4cn5cc(CNCC6CCC6)ccc5n4)cn3)cnc2[nH]1 [Example 34, (cyclobutylmethyl)({2-[(4-{1H-pyrrolo[2,3-b]pyridin-5-yl}-1H-imidazol-1-yl)methyl]imidazo[1,2-a]pyridin-6-yl}methyl)amine] | 1280 | –
11.2 | – | COc1cnc(C#N)c(-c2cn(Cc3cn4cc(CNCC56CC(C5)C6)ccc4n3)nn2)c1 [Example 37, 3-{1-[(6-{[({bicyclo[1.1.1]pentan-1-yl}methyl)amino]methyl}imidazo[1,2-a]pyridin-2-yl)methyl]-1H-1,2,3-triazol-4-yl}-5-methoxypyridine-2-carbonitrile] | – | –
57 | – | COc1cnc(C#N)c(-c2cn(Cc3cn4cc(CNCC5CCC5)ccc4n3)nn2)c1 [Example 38, 3-{1-[(6-{[(cyclobutylmethyl)amino]methyl}imidazo[1,2-a]pyridin-2-yl)methyl]-1H-1,2,3-triazol-4-yl}-5-methoxypyridine-2-carbonitrile] | – | –
76 | – | COc1cnc(C#N)c(-c2cn(Cc3cn4cc(CN5CCC6(CCC6)C5)ccc4n3)nn2)c1 [Example 40, 3-(1-{[6-({6-azaspiro[3.4]octan-6-yl}methyl)imidazo[1,2-a]pyridin-2-yl]methyl}-1H-1,2,3-triazol-4-yl)-5-methoxypyridine-2-carbonitrile] | – | –
1180 | – | N#Cc1ncc(F)cc1-c1cn(Cc2cn3cc(CN4CCC5(CCC5)C4)ccc3n2)nn1 [Example 42, 3-(1-{[6-({6-azaspiro[3.4]octan-6-yl}methyl)imidazo[1,2-a]pyridin-2-yl]methyl}-1H-1,2,3-triazol-4-yl)-5-fluoropyridine-2-carbonitrile] | – | –
235 | – | N#Cc1ncc(F)cc1-c1cn(Cc2cn3cc(CNCC45CC(F)(C4)C5)ccc3n2)nn1 [Example 43, 5-fluoro-3-{1-[(6-{[({3-fluorobicyclo[1.1.1]pentan-1-yl}methyl)amino]methyl}imidazo[1,2-a]pyridin-2-yl)methyl]-1H-1,2,3-triazol-4-yl}pyridine-2-carbonitrile] | – | –
74 | – | COc1cncc(C(=O)NCc2cn3cc(CNCC4CCC4)ccc3n2)c1 [Example 46, N-[(6-{[(cyclobutylmethyl)amino]methyl}imidazo[1,2-a]pyridin-2-yl)methyl]-5-methoxypyridine-3-carboxamide] | – | –
85 | – | COc1cnc(C(N)=O)c(-c2cn(Cc3cn4cc(CNCC56CC(F)(C5)C6)ccc4n3)nn2)c1 [Example 49, 3-{1-[(6-{[({3-fluorobicyclo[1.1.1]pentan-1-yl}methyl)amino]methyl}imidazo[1,2-a]pyridin-2-yl)methyl]-1H-1,2,3-triazol-4-yl}-5-methoxypyridine-2-carboxamide] | – | –
– | 5340 | Cc1ccc2nc(CNC(=O)c3nccc4[nH]ncc34)cn2c1 [Reference Example 1, N-({6-methylimidazo[1,2-a]pyridin-2-yl}methyl)-1H-pyrazolo[4,3-c]pyridine-4-carboxamide] | – | –
